Laboratory results as given in US20250051347A1, “BIFUNCTIONAL CHIMERIC HETEROCYCLIC COMPOUND AND USE THEREOF AS ANDROGEN RECEPTOR DEGRADER” (Hinova Pharmaceuticals, Inc., priority 2021, published 2025).
Where two headings read alike, the source gives them in different places.

How the values were obtained:
[1] = target: T1, androgen receptor (AR) splicing variant AR-v7 (Homo sapiens, UniProt P10275); assay: Degradation activity on androgen receptor splicing variant AR-v7 in 22RV1 cells (ELISA); assay type: cell-based; details: AR-v7 degradation in 22RV1 cells, 48 h, class symbols
T1 construct: The degradation activity of compounds on AR-v7 in 22RV1 cells; host or cells: 22RV1 cells
T1 sequence (P10275 1-644 isoform P10275-3): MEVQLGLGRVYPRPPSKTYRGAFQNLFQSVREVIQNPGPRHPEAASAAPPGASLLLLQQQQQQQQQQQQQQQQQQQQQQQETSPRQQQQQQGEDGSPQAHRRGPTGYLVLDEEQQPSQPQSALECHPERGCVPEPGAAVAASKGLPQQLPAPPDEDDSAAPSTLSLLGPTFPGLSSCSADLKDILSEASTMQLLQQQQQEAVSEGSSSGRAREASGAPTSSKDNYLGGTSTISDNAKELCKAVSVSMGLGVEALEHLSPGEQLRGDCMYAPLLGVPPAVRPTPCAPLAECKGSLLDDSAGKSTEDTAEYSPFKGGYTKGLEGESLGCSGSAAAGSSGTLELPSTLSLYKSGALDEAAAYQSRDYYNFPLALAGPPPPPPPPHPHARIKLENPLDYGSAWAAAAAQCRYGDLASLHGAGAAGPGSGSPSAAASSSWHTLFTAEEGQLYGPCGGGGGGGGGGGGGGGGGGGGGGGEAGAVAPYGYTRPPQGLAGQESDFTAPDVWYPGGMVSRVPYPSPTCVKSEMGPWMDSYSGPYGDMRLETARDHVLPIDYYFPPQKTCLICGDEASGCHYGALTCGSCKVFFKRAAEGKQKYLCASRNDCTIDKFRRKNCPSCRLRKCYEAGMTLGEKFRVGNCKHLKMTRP

[2] = Homo sapiens, 22Rv1, 144 h, read-out: 22RV1 IC50 (nM), 22RV1 cells, 6 days culture, CCK-8, OD 450 nm
[3] = read-out: 22RV1 IC50, 22RV1 cells, 6 days culture, CCK-8, OD 450 nm

| DC50 [1] [nM] | IC50 (22RV1 cells; [2]) [nM] | IC50 (22RV1 cells; [3]) [nM] | Compound |
| --- | --- | --- | --- |
| < 10 | 4 |  | CC(C)(c1ccc(Oc2cnc(C(N)=O)nc2)cc1)c1ccc(O[C@H]2C[C@H](Nc3ccc4c(c3)C(=O)N(C3CCC(=O)NC3=O)C4=O)C2)cc1 (some centres unmarked) [Example 265, 5-(4-(2-(4-((1r,3r)-3-((2-(2,6-dioxopiperidin-3-yl)-1,3-dioxoisoindolin-5-yl)amino)cyclobutyloxy)phenyl)propan-2-yl)phenoxy)pyrimidin-2-carbonylamine] |
| < 10 | 18 |  | Cc1noc(-c2ccc(Oc3ccc(C(C)(C)c4ccc(O[C@H]5C[C@H](Nc6ccc7c(c6)C(=O)N(C6CCC(=O)NC6=O)C7=O)C5)cc4)cc3)nn2)n1 (some centres unmarked) [Example 331] |
| < 10 |  | 19 | CC(C)(c1ccc(OCc2ccnc(-n3ccnc3)n2)cc1)c1ccc(OC2CC(Nc3ccc4c(c3)C(=O)N(C3CCC(=O)NC3=O)C4=O)C2)cc1 (centres unmarked) [Example 405, 5-((1s,3s)-3-(4-(2-(2-(1H-imidazol-1-yl)pyrimidin-4-yl)methoxy)phenyl)propan-2-yl)phenoxy)cyclobutyl)amino)-2-(2,6-dioxopiperidin-3-yl)isoindol-1,3-dione] |
| < 10 | 6 |  | CC(C)(c1ccc(OCc2ccnc(N3CC(N4CCC4)C3)n2)cc1)c1ccc(O[C@H]2C[C@H](Nc3ccc4c(c3)C(=O)N(C3CCC(=O)NC3=O)C4=O)C2)cc1 (some centres unmarked) [Example 414] |
| < 10 | 7 |  | CC(C)(c1ccc(Oc2cncc(-n3nccn3)n2)cc1)c1ccc(O[C@H]2C[C@H](Nc3ccc4c(c3)C(=O)N(C3CCC(=O)NC3=O)C4=O)C2)cc1 (some centres unmarked) [Example 579] |
| 11 to 100 | 32 |  | CNC(=O)c1nccc(COc2ccc(C(C)(C)c3ccc(O[C@H]4C[C@H](Nc5ccc6c(c5)C(=O)N(C5CCC(=O)NC5=O)C6=O)C4)cc3)cc2)n1 (some centres unmarked) [Example 186, 4-((4-(2-(4-((1r,3r)-3-((2-(2,6-dioxopiperidin-3-yl)-1,3-dioxoisoindolin-5-yl)amino)cyclobutyloxy)phenyl)propan-2-yl)phenoxy)methyl)-N-methylpyrimidin-2-carbonylamine] |
| < 10 | 19 |  | Cc1nnc(-c2cc(Oc3ccc(C(C)(C)c4ccc(O[C@H]5C[C@H](Nc6ccc7c(c6)C(=O)N(C6CCC(=O)NC6=O)C7=O)C5)cc4)cc3)ccn2)o1 (some centres unmarked) [Example 172, 2-(2,6-dioxopyridin-3-yl)-5-(((1r,3r)-3-(4-(2-(4-((2-(5-methyl-1,3,4-oxadiazol-2-yl)pyridin-4-yl)oxy)phenyl)propan-2-yl)phenoxy)cyclobutyl)amino) isoindolin-1,3-dione] |
| 11 to 100 | 18 |  | CC(C)(c1ccc(Oc2cc(-n3nccn3)ccn2)cc1)c1ccc(O[C@H]2C[C@H](Nc3ccc4c(c3)C(=O)N(C3CCC(=O)NC3=O)C4=O)C2)cc1 (some centres unmarked) [Example 168] |
| 11 to 100 | 40 |  | CC(C)(c1ccc(OCc2ccnc(N3CC4(COC4)C3)n2)cc1)c1ccc(OCC2(Nc3ccc4c(c3)C(=O)N(C3CCC(=O)NC3=O)C4=O)CC2)cc1 (centres unmarked) [Example 564, 5-((1-((4-(2-(4-((2-(2-oxa-6-azaspiro[3.3]heptan-6-yl)pyrimidin-4-yl)methoxy)phenyl)propan-2-yl)phenoxy)methyl)cyclopropyl)amino)-2-(2,6-dioxopiperidin-3-yl)isoindolin-1,3-dione] |
| < 10 | 14 |  | CC(C)(c1ccc(Oc2cncc(-n3ccnn3)n2)cc1)c1ccc(O[C@H]2C[C@H](Nc3ccc4c(c3)C(=O)N(C3CCC(=O)NC3=O)C4=O)C2)cc1 (some centres unmarked) [Example 580] |

More lines, now with the values behind:

| Compound | DC50 [1] [nM] | IC50 (22RV1 cells; [2]) [nM] | IC50 (22RV1 cells; [3]) [nM] |
| --- | --- | --- | --- |
| CC(C)(c1ccc(OCc2cnc(N3CC4(COC4)C3)nc2)cc1)c1ccc(O[C@H]2C[C@H](Nc3ccc4c(c3)C(=O)N(C3CCC(=O)NC3=O)C4=O)C2)cc1 (some centres unmarked) [Example 535] | 11 to 100 | 35 |  |
| CCC(CC)(c1ccc(Oc2cnc(C(C)O)nc2)cc1)c1ccc(O[C@H]2C[C@@H](Nc3ccc4c(c3)C(=O)N(C3CCC(=O)NC3=O)C4=O)C2)cc1 (some centres unmarked) [Example 133] | < 10 |  | 9 |
| CC(C)(c1ccc(OCc2ccnc(OC3COC3)n2)cc1)c1ccc(O[C@H]2C[C@H](Nc3ccc4c(c3)C(=O)N(C3CCC(=O)NC3=O)C4=O)C2)cc1 (some centres unmarked) [Example 369, 2-(2,6-dioxopiperidin-3-yl)-5-(((1r,3r)-3-(4-(2-(4-((2-(oxetane-3-yloxy)pyrimidin-4-yl)methoxy)phenyl)isopropan-2-yl)phenoxy)cyclobutyl)amino) isoindolin-1,3-dione] | < 10 | 6 |  |
| CC(O)c1nccc(COc2ccc(C(C)(C)c3ccc(OCCCNc4ccc5c(c4)C(=O)N(C4CCC(=O)NC4=O)C5=O)cc3)cc2)n1 (centres unmarked) [Example 345, 2-(2,6-dioxopiperidin-3-yl)-5-((3-(4-(2-(4-((2-(1-hydroxylethyl)pyrimidin-4-yl)methoxy)phenyl)isopropan-2-yl)phenoxy)propyl)amino)isoindolin-1,3-dione] | 11 to 100 | 10 |  |
| CC(C)(c1ccc(OCCCNc2ccc3c(c2)C(=O)N(C2CCC(=O)NC2=O)C3=O)cc1)c1ccc(OCc2ccnc(-n3ccnn3)n2)cc1 (centres unmarked) [Example 228, 5-((3-(4-(2-(4-((2-(1H-1,2,3-triazol-1-yl)pyrimidin-4-yl)methoxy)phenyl)propan-2-yl)phenoxy)propyl)amino)-2-(2,6-dioxopiperidin-3-yl)isoindolin-1,3-dione] | 11 to 100 | 22 |  |
| CC(C)(c1ccc(Oc2ncnc(N3CC4(COC4)C3)c2F)cc1)c1ccc(O[C@H]2C[C@@H](Nc3ccc4c(c3)C(=O)N(C3CCC(=O)NC3=O)C4=O)C2)cc1 (some centres unmarked) [Example 574] | < 10 | 5 |  |
| CCC(CC)(c1ccc(Oc2ccc(C(C)=O)nn2)cc1)c1ccc(OC2CC(Nc3ccc4c(c3)C(=O)N(C3CCC(=O)NC3=O)C4=O)C2)cc1 (centres unmarked) [Example 431, 5-((1s,3s)-3-(4-(3-(4-((6-acetylpyridazine-3-yl)oxy)phenyl)pentan-3-yl)phenoxy)cyclobutyl)amino)-2-(2,6-dioxopyridin-3-yl)isoindol-1,3-dione] | < 10 |  | 4 |
| CC(C)(c1ccc(Oc2cnc(CO)nc2)cc1)c1ccc(O[C@H]2C[C@H](Nc3ccc4c(c3)C(=O)N(C3CCC(=O)NC3=O)C4=O)C2)cc1 (some centres unmarked) [Example 549] | < 10 | 7 |  |
| Cc1nnc(-c2cnc(Oc3ccc(C(C)(C)c4ccc(O[C@H]5C[C@H](Nc6ccc7c(c6)C(=O)N(C6CCC(=O)NC6=O)C7=O)C5)cc4)cc3)o2)o1 (some centres unmarked) [Example 96, 2-(2,6-dioxopiperidin-3-yl)-5-(((1r,3r)-3-(4-(2-(4-((5-(5-methyl-1,3,4-oxadiazol-2-yl)oxazol-2-yl)oxy)phenyl)propan-2-yl)phenoxy)cyclobutyl)amino) isoindolin-1,3-dione] | < 10 | 25 |  |
| CC(=O)c1nccc(COc2ccc(C(C)(C)c3ccc(OC[C@@H]4CCN4c4ccc5c(c4)C(=O)N(C4CCC(=O)NC4=O)C5=O)cc3)cc2)n1 (stereo partly drawn) [Example 308, 5-((S)-2-((4-(2-(4-((2-acetylpyrimidin-4-yl)methoxy)phenyl)propan-2-yl)phenoxy)methyl)azetidin-1-yl)-2-(2,6-dioxopiperidin-3-yl)isoindolin-1,3-dione] | 11 to 100 | 19 |  |
| CC(C)(c1ccc(Oc2cccc(-n3nccn3)n2)cc1)c1ccc(O[C@H]2C[C@H](Nc3ccc4c(c3)C(=O)N(C3CCC(=O)NC3=O)C4=O)C2)cc1 (some centres unmarked) [Example 256, 5-((1r,3r)-3-(4-(2-(4-((6-(2H-1,2,3-triazol-2-yl)pyridin-2-yl)oxy)phenyl)propan-2-ylphenoxy)cyclobutyl)amino)-2-(2,6-dioxopiperidin-3-yl)isoindolin-1,3-dione] | < 10 | 2 |  |
| CC(C)(c1ccc(OCc2ccnc(N3CC4(COC4)C3)n2)c(F)c1)c1ccc(O[C@H]2C[C@H](Nc3ccc4c(c3)C(=O)N(C3CCC(=O)NC3=O)C4=O)C2)c(F)c1 (some centres unmarked) [Example 365, 5-(((1r,3r)-3-(4-(2-(4-((2-(2-oxa-6-azaspiro[3.3]heptane-6-yl)pyrimidin-4-yl)methoxy)-3-fluorophenyl)isopropan-2-yl)-2-fluorophenoxy)cyclobutyl)amino)-2-(2,6-dioxopiperidin-3-yl)isoindolin-1,3-dione] | < 10 | 9 |  |
| CCC(O)c1ncc(Oc2ccc(C(C)(C)c3ccc(O[C@H]4C[C@H](Nc5ccc6c(c5)C(=O)N(C5CCC(=O)NC5=O)C6=O)C4)cc3)cc2)cn1 (some centres unmarked) [Example 428] | < 10 | 6 |  |
| CCC(CC)(c1ccc(Oc2cnc(C(C)O)nc2)cc1)c1ccc(O[C@H]2C[C@H](Nc3ccc4c(c3)C(=O)N(C3CCC(=O)NC3=O)C4=O)C2)cc1 (some centres unmarked) [Example 131] | < 10 | 4 |  |
| CC(C)(c1ccc(OCCCNc2ccc3c(c2)C(=O)N(C2CCC(=O)NC2=O)C3=O)cc1)c1ccc(OCc2ccnc(OC3CC3)n2)cc1 (centres unmarked) [Example 70, 5-((3-(4-(2-(4-((2-cyclopropyloxypyrimidin-4-yl)methoxy)phenyl)propan-2-yl)phenoxy)propyl)amino)-2-(2,6-dioxopiperidin-3-yl)isoindolin-1,3-dione] | 11 to 100 | 30 |  |
